Experimental data published in PubChem BioAssay (NCI).
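Here, GI50 denotes the concentration required for 50% inhibition of growth. TGI denotes the concentration required for complete inhibition of growth.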

Key:
Assay in all cases: growth of human tumour cells (NCI), 384-well format
SNB-19 CNS = test system: SNB-19 CNS
HOP-62 NSCLC = test system: HOP-62 NSCLC
COLO 205 colon = test system: COLO 205 colon
CAKI-1 renal = test system: CAKI-1 renal
M14 melanoma = test system: M14 melanoma
HL-60(TB) leukemia = test system: HL-60(TB) leukemia
OVCAR-4 ovarian = test system: OVCAR-4 ovarian
CCRF-CEM leukemia = test system: CCRF-CEM leukemia
SK-MEL-2 melanoma = test system: SK-MEL-2 melanoma
K-562 leukemia = test system: K-562 leukemia
MDA-MB-468 breast = test system: MDA-MB-468 breast
DU-145 prostate = test system: DU-145 prostate
NCI-H23 lung = test system: NCI-H23 lung
IGROV1 ovarian = test system: IGROV1 ovarian
TK-10 renal = test system: TK-10 renal
SK-OV-3 ovarian = test system: SK-OV-3 ovarian
SNB-75 CNS = test system: SNB-75 CNS
EKVX NSCLC = test system: EKVX NSCLC
UACC-257 melanoma = test system: UACC-257 melanoma
786-0 renal = test system: 786-0 renal
SR leukemia = test system: SR leukemia
MDA-MB-435 melanoma = test system: MDA-MB-435 melanoma
SK-MEL-5 melanoma = test system: SK-MEL-5 melanoma
KM12 colon = test system: KM12 colon
PC-3 prostate = test system: PC-3 prostate
SN12C renal = test system: SN12C renal
HS 578T breast = test system: HS 578T breast
ACHN renal = test system: ACHN renal
UACC-62 melanoma = test system: UACC-62 melanoma
NCI-H522 lung = test system: NCI-H522 lung
T-47D breast = test system: T-47D breast
OVCAR-8 ovarian = test system: OVCAR-8 ovarian
A549 NSCLC = test system: A549 NSCLC
MCF7 breast = test system: MCF7 breast
NCI-H322M lung = test system: NCI-H322M lung
UO-31 renal = test system: UO-31 renal
RXF 393 renal = test system: RXF 393 renal
BT-549 breast = test system: BT-549 breast
HCT-116 colon = test system: HCT-116 colon
HCT-15 colon = test system: HCT-15 colon
NCI/ADR-RES ovarian = test system: NCI/ADR-RES ovarian
SW-620 colon = test system: SW-620 colon
HT29 colon = test system: HT29 colon
HOP-92 NSCLC = test system: HOP-92 NSCLC
SF-295 CNS = test system: SF-295 CNS
MOLT-4 leukemia = test system: MOLT-4 leukemia
RPMI-8226 leukemia = test system: RPMI-8226 leukemia

Cc1cc(Nc2cc(N)ncn2)c(=O)n2c1C(=O)NC21CCCCC1
GI50 (SNB-19 CNS): > 100 µM
TGI (SNB-19 CNS): > 100 µM
GI50 (HOP-62 NSCLC): > 100 µM
TGI (HOP-62 NSCLC): > 100 µM
GI50 (COLO 205 colon): > 100 µM
TGI (COLO 205 colon): > 100 µM
GI50 (CAKI-1 renal): > 100 µM
TGI (CAKI-1 renal): > 100 µM
GI50 (M14 melanoma): > 100 µM
TGI (M14 melanoma): > 100 µM
GI50 (HL-60(TB) leukemia): > 100 µM
TGI (HL-60(TB) leukemia): > 100 µM
GI50 (OVCAR-4 ovarian): > 100 µM
TGI (OVCAR-4 ovarian): > 100 µM
GI50 (CCRF-CEM leukemia): > 100 µM
TGI (CCRF-CEM leukemia): > 100 µM
GI50 (SK-MEL-2 melanoma): > 100 µM
TGI (SK-MEL-2 melanoma): > 100 µM
GI50 (K-562 leukemia): > 100 µM
TGI (K-562 leukemia): > 100 µM
GI50 (MDA-MB-468 breast): > 100 µM
TGI (MDA-MB-468 breast): > 100 µM
GI50 (DU-145 prostate): > 100 µM
TGI (DU-145 prostate): > 100 µM
GI50 (NCI-H23 lung): > 100 µM
TGI (NCI-H23 lung): > 100 µM
GI50 (IGROV1 ovarian): > 100 µM
TGI (IGROV1 ovarian): > 100 µM
GI50 (TK-10 renal): > 100 µM
TGI (TK-10 renal): > 100 µM
GI50 (SK-OV-3 ovarian): > 100 µM
TGI (SK-OV-3 ovarian): > 100 µM
GI50 (SNB-75 CNS): > 100 µM
TGI (SNB-75 CNS): > 100 µM
GI50 (EKVX NSCLC): > 100 µM
TGI (EKVX NSCLC): > 100 µM
GI50 (UACC-257 melanoma): > 100 µM
TGI (UACC-257 melanoma): > 100 µM
GI50 ([…]-0 renal): > 100 µM
TGI (786-0 renal): > 100 µM
GI50 (SR leukemia): > 69.7 µM
TGI (SR leukemia): > 100 µM
GI50 (MDA-MB-435 melanoma): > 100 µM
TGI (MDA-MB-435 melanoma): > 100 µM
GI50 (SK-MEL-5 melanoma): > 100 µM
TGI (SK-MEL-5 melanoma): > 100 µM
GI50 (KM12 colon): > 100 µM
TGI (KM12 colon): > 100 µM
GI50 (PC-3 prostate): > 100 µM
TGI (PC-3 prostate): > 100 µM
GI50 (SN12C renal): > 100 µM
TGI (SN12C renal): > 100 µM
GI50 (HS 578T breast): > 100 µM
TGI (HS 578T breast): > 100 µM
GI50 (ACHN renal): > 100 µM
TGI (ACHN renal): > 100 µM
GI50 (UACC-62 melanoma): > 100 µM
TGI (UACC-62 melanoma): > 100 µM
GI50 (NCI-H522 lung): > 100 µM
TGI (NCI-H522 lung): > 100 µM
GI50 (T-47D breast): > 100 µM
TGI (T-47D breast): > 100 µM
GI50 (OVCAR-8 ovarian): > 100 µM
TGI (OVCAR-8 ovarian): > 100 µM
GI50 (A549 NSCLC): > 100 µM
TGI (A549 NSCLC): > 100 µM
GI50 (MCF7 breast): > 100 µM
TGI (MCF7 breast): > 100 µM
GI50 (NCI-H322M lung): > 100 µM
TGI (NCI-H322M lung): > 100 µM
GI50 (UO-31 renal): > 100 µM
TGI (UO-31 renal): > 100 µM
GI50 (RXF 393 renal): > 100 µM
TGI (RXF 393 renal): > 100 µM
GI50 (BT-549 breast): > 76.9 µM
TGI (BT-549 breast): > 100 µM
GI50 (HCT-116 colon): > 100 µM
TGI (HCT-116 colon): > 100 µM
GI50 (HCT-15 colon): > 100 µM
TGI (HCT-15 colon): > 100 µM
GI50 (NCI/ADR-RES ovarian): > 100 µM
TGI (NCI/ADR-RES ovarian): > 100 µM
GI50 (SW-620 colon): > 100 µM
TGI (SW-620 colon): > 100 µM
GI50 (HT29 colon): > 100 µM
TGI (HT29 colon): > 100 µM
GI50 (HOP-92 NSCLC): > 23.2 µM
TGI (HOP-92 NSCLC): > 100 µM
GI50 (SF-295 CNS): > 100 µM
TGI (SF-295 CNS): > 100 µM
GI50 (MOLT-4 leukemia): > 100 µM
TGI (MOLT-4 leukemia): > 100 µM
GI50 (RPMI-8226 leukemia): > 62.6 µM
TGI (RPMI-8226 leukemia): > 100 µM
